Literature values as cited in patent US9744192B2, “Methods of treating chronic rhinosinusitis” (priority 2015, dated 2017).
Where two headings read alike, the source gives them in different places.

Tests used:
[1] = aqueous solution, pH=7.4
[2] = system: Bacillus shiga-kruse (aka: Shigella dysenteriae); conditions: 2-3% aqueous boric acid, agar culture
[3] = system: Saccharomyces cerevisiae cells; conditions: living cells
Candida albicans = conditions: for strains with complete growth inhibition: 1% aqueous boric acid
[4] = system: 17 bacterial strains including Staphylococcus aureus, Enterococcus faecalis, E. coli, Klebsiella pneumonia and others; conditions: 2.5% boric acid
[5] = system: 17 bacteria and fungi (human pathogens)

## OB(O)O [boric acid, Boric acid]
[1]
  borate B(OH)4− share of equilibrium: 1.6%
  free boric acid B(OH)3 share of equilibrium: 98.4%
[2]
  agglutination: marked agglutination
[3]
  effect on cell morphology: alter the morphology
Candida albicans; fluconazole-resistant strains
  strains with complete growth inhibition: 24 of the 25
Candida albicans; fluconazole-susceptible strains
  strains with complete growth inhibition: 45 of the 46
Candida albicans; 1% boric acid
  sudden physical membrane damage: No sign of sudden physical membrane damage
Candida albicans; 24 hour exposure to 1% boric acid
  membrane integrity: decreased only slightly
[4]
  bacterial strains with complete growth inhibition: 17 of 17
[5]; boric acid 1.8-2%, urine samples, up to 24 hours at 24° C.
  integrity of initial bacterial or fungal counts: maintained for all human pathogens studied
[5]; preserved samples diluted out
  reversibility of the bacteriostatic effect after dilution into nutrient culture media: rapid and complete reversibility
In vivo
  tissue irritation or other adverse events: little or no evidence
topical
  absorption across uninjured skin or vaginal epithelium: not significantly absorbed
